Results as given in US20160130443A1, “PHTHALOCYANINE DYE USED FOR COLOR FILTER OF A LCD” (DOW GLOBAL TECHNOLOGIES LLC, priority 2013, published 2016).

What was measured:
Format in all cases: physicochemical
[1] = Thermal stability of dyes (mass loss measured by TGA); conditions: air atmosphere
Description: (1) Thermal Stability of Dyes (Mass Loss Measured by TGA):
The thermal stability of dye itself was determined by the mass loss of dye measured by TGA under air atmosphere at 230° C. for 1 hour. This evaluation reflects chemical stability of the dye itself

[2] = Thermal stability of films (chromaticity difference before and after hard baking); conditions: for Thermal stability of a film at 230° C. (ΔEab): film with acrylic resin baked at 230° C. under air for 1 hour, smaller = better heat resistance; for Thermal stability (in words): summary referring to Table 1
Description: The obtained dry film was baked at 230° C. under air for 1 hour to evaluate thermal stability of the film. Optical performance before and after baking (ΔEab value) was 1.6. A smaller ΔEab value indicates better heat resistance.
(4) Thermal Stability of Films (Chromaticity):
The wet film after spin coating is dried in oven at 90° C. for 30 minutes and then soft baked at 150° C. for 15 minutes. The chromaticity coordinates (L, a, b) are recorded with UltraScan Pro (Hunterlab) colorimeter. D65 light source is used and results are based on CIE Lab coordinates. After that the film is hard baked at target temperature (230° C.) for 1 hour and the new chromaticity coordinates (L′, a′, b′) are recorded with the method above. The thermal stability of a film is indicated by the difference of chromaticity coordinate before and after hard baking represented by the following formula;
ΔE=√{square root over ((L−L′)^2+(a−a′)^2+(b−b′)^2)}

[3] = Solubility of dye in organic solvent at 25° C.

Mass loss measured by TGA at 230° C. for 1 hour (%) [1] | Thermal stability of a film at 230° C. (ΔEab) [2] | Thermal stability (in words) [2] | Solubility in PGMEA at 25° C. (wt %) [3] | Solubility in cyclohexanone at 25° C. (wt %) [3] | Compound | Solubility in cyclohexanone and PGMEA (in words) ([3]; summary referring to Table 1)
13.08% | 21.5 | very poor thermal stability | 0.17 wt % | 9.0 wt % | CCCCOc1ccc(OCCCC)c2c1-c1nc-2nc2[nH]c(nc3nc(nc4[nH]c(n1)c1c(OCCCC)ccc(OCCCC)c41)-c1c(OCCCC)ccc(OCCCC)c1-3)c1c(OCCCC)ccc(OCCCC)c21 [compound 3] | 
14.04% | 18.4 | very poor thermal stability | 1.23 wt % | 3.0 wt % | CNc1ccc(Nc2cccc(C)c2)c2c1C(=O)c1ccccc1C2=O [compound 1, C.I. solvent blue 63] | 
9.56% | 13.3 | very poor thermal stability | 1.98 wt % | 4.0 wt % | C.I. disperse red 343 [compound 2] | 

Compound | Mass loss measured by TGA at 230° C. for 1 hour (%) [1] | Thermal stability of a film at 230° C. (ΔEab) [2] | Thermal stability (in words) [2] | Solubility in PGMEA at 25° C. (wt %) [3] | Solubility in cyclohexanone at 25° C. (wt %) [3] | Solubility in cyclohexanone and PGMEA (in words) ([3]; summary referring to Table 1)
c1ccc2c(c1)C1=Nc3c4ccccc4c4[n]3[Cu-2]35[n]6c(c7ccccc7c6=NC6=[N+]3C(=N4)c3ccccc36)=NC2=[N+]15 [compound 4] | 0.02% |  |  | insoluble | insoluble | insoluble
